IC50 data for six compounds are collected here from US7589212B2, “Human protein tyrosine phosphatase inhibitors and methods of use” (Procter & Gamble Company, priority 2006, dated 2009).

One assay deals with HPTPβ (Homo sapiens, UniProt P23467). Put plainly: HPTPβ inhibition (IC50). Format: biochemical.
The next assay deals with T1, PTP1B (Homo sapiens, UniProt P18031).
T1 sequence (P18031 1-435): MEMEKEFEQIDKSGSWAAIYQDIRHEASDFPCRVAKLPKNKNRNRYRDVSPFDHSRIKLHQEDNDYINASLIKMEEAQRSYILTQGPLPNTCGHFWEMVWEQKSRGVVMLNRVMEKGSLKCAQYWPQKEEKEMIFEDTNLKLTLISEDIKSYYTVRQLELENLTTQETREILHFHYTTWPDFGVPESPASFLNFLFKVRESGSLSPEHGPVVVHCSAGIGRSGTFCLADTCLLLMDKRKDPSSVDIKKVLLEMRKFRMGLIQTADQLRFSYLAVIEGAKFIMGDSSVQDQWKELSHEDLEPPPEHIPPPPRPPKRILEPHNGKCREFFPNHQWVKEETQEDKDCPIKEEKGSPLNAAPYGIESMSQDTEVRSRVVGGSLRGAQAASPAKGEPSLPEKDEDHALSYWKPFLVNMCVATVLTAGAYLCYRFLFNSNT
Put plainly: PTP1B inhibition (IC50). In kind it is biochemical.

Sequence of HPTPβ (P23467 23-1997): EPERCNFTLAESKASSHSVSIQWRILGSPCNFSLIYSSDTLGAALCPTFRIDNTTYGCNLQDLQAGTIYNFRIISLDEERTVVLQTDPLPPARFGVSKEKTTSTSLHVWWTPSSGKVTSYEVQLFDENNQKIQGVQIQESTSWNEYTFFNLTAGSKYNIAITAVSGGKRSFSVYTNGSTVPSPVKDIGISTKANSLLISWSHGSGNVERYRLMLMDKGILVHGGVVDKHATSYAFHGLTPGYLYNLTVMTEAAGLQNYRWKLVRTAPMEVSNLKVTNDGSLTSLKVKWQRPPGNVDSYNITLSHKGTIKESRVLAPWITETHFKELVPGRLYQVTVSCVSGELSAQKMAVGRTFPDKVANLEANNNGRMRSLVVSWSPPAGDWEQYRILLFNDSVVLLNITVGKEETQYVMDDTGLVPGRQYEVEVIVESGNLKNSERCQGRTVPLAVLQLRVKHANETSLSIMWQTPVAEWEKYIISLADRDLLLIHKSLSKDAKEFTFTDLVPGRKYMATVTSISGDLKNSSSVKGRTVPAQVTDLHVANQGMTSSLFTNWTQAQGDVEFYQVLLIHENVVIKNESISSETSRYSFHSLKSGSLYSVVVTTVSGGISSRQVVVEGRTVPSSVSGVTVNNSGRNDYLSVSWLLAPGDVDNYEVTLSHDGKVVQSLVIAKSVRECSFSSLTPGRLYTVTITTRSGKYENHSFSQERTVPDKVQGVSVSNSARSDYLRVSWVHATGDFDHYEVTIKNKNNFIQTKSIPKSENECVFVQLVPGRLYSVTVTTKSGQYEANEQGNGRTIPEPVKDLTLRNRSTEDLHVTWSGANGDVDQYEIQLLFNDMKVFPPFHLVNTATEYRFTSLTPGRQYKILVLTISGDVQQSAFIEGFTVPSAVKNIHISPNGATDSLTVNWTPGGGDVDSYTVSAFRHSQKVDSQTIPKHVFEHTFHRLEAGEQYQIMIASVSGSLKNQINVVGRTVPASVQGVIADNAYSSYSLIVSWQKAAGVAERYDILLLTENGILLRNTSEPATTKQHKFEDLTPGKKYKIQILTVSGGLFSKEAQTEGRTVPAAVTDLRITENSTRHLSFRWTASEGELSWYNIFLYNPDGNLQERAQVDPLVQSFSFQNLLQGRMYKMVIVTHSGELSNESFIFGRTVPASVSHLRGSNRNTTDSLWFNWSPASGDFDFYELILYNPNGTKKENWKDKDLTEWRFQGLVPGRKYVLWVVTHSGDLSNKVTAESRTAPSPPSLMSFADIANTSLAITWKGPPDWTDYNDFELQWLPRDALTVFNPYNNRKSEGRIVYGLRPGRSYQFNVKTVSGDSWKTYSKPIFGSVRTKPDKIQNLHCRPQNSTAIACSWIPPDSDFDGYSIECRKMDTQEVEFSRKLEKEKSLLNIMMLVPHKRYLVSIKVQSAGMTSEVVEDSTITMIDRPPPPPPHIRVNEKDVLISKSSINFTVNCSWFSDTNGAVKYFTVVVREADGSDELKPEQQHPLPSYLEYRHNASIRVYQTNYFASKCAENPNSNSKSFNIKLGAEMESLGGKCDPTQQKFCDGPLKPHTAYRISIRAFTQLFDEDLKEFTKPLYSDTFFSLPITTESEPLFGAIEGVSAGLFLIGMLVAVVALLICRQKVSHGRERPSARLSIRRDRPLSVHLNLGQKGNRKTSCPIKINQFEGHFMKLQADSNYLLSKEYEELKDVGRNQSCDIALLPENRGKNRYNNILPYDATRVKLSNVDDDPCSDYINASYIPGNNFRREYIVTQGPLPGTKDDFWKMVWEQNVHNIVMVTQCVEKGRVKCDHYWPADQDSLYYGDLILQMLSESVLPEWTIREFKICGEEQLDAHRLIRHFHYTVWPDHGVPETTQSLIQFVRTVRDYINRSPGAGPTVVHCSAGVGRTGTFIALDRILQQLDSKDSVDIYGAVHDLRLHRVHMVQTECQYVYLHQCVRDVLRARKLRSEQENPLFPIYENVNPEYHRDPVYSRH

`O=S(=O)(O)Nc1ccc(C[C@H](Nc2nnc(Cc3ccccc3)s2)c2csc(-c3cccs3)n2)cc1` [4-((S)-2-(5-Benzyl-1,3,4-thiadiazol-2-ylamino)-2-(2-(thiophen-2-yl)thiazol-4-yl)ethyl)phenylsulfamic acid]: the IC50 – broadly, the midpoint of a concentration-inhibition curve – was determined as 0.6 nM against HPTPβ and 3860 nM against PTP1B.

With `CCCc1nnc(N[C@@H](Cc2ccc(NS(=O)(=O)O)cc2)c2csc(-c3cccs3)n2)s1` [4-((S)-2-(5-Propyl-1,3,4-thiadiazol-2-ylamino)-2-(2-(thiophen-2-yl)thiazol-4-yl)ethyl)phenylsulfamic acid], the IC50 on HPTPβ amounted to 0.2 nM; at PTP1B it was 4710 nM.

As for `Cc1nc(Cc2nnc(N[C@@H](Cc3ccc(NS(=O)(=O)O)cc3)c3csc(-c4cccs4)n3)s2)cs1` [4-((S)-2-(5-((2-Methylthiazol-4-yl)methyl)-1,3,4-thiadiazol-2-ylamino)-2-(2-(thiophen-2-yl)thiazol-4-yl)ethyl)phenylsulfamic acid], the IC50 against HPTPβ is 0.009 nM; against PTP1B, 580 nM.

Take `COC(=O)Cc1nnc(N[C@@H](Cc2ccc(NS(=O)(=O)O)cc2)c2csc(-c3cccs3)n2)s1` [4-((S)-2-(5-((Methoxycarbonyl)methyl)-1,3,4-thiadiazol-2-ylamino)-2-(2-(thiophen-2-yl)thiazol-4-yl)ethyl)phenylsulfamic acid]: the IC50 against HPTPβ was found to be 2 nM; against PTP1B, 1550 nM.

`O=S(=O)(O)Nc1ccc(C[C@H](Nc2nnc(-c3ccccc3)s2)c2csc(-c3ccccc3)n2)cc1` [(S)-4-(2-(5-Phenyl-1,3,4-thiadiazol-2-ylamino)-2-(2-phenylthiazol-4-yl)ethyl)-phenylsulfamic acid]: the IC50 against HPTPβ turned out to be 46 nM; against PTP1B, 3700 nM.

As to `Cc1nnc(N[C@@H](Cc2ccc(NS(=O)(=O)O)cc2)c2csc(-c3ccccc3)n2)s1` [(S)-4-(2-(5-methyl-1,3,4-thiadiazol-2-ylamino)-2-(2-phenylthiazol-4-yl)ethyl)phenylsulfamic acid], the concentration for half-maximal inhibition (IC50) was 3 nM at HPTPβ and 1400 nM against PTP1B.
